Measured values from patent US8071317B2, “Methods for detection of hydrophobic drugs” (Siemens Healthcare Diagnostics Inc., priority 2007, dated 2011).

Test system: anti-sirolimus antibody
Experiment: Sirolimus ACMIA immunoassay: metabolite cross-reactivity in whole blood
Format: binding
From the text: Testing was done using the DIMENSION® RxL analyzer, available from Dade Behring Inc., Newark Del. The instrument was employed using ACMIA immunoassay technology. The ACMIA assay method is disclosed in U.S. Pat. Nos. 7,186,518, 5,147,529, 5,128,103, 5,158,871, 4,661,408, 5,151,348, 5,302,532, 5,422,284, 5,447,870, 5,434,051, the disclosures of which are incorporated herein in their entirety). In the embodiment of the ACMIA method used herein and discussed in more detail below, competition between sirolimus analog on chrome particles and sirolimus (SIRO) in patient samples for antibody for sirolimus conjugated to an enzyme (conjugate) was utilized to determine the amount of sirolimus in the patient samples. Conjugate that binds to the sirolimus analog on chrome particles was removed by magnetic separation. The enzymatic activity from conjugate remaining in the supernatant is measured and is directly proportional to the amount of sirolimus in the patient sample. In the ACMIA assay format employed, the enzymatic activity observed when testing a sample containing no sirolimus was indicative of the amount of enzymatic activity that was not bound to active antibody (i.e., cannot bind sirolimus on chrome particles). The enzymatic activity observed when no chrome particle is present is indicative of the total amount of enzymatic activity in the conjugate. These values can be used to estimate the percent of enzymatic activity bound to active antibody.
Monoclonal anti-sirolimus antibody (Wyeth Pharmaceuticals, Cambridge Mass.) was conjugated to β-galactosidase using a standard heterobifunctional SMCC (succinimidyl trans-4-(N-maleimidylmethyl)cyclohexane-1-carboxylate) linker according to known techniques. The antibody conjugate solution contained approximately 7.5 μg/mL anti-sirolimus antibody-β-galactosidase conjugate, 30 mg/mL protease free bovine serum albumin, 0.126 mg/mL MgCl2, 0.03 mL/mL of Ethylene glycol, 35.14 mg/mL PIPES 1.5 sodium salt, 50 mg/mL NaCl and beta-gal mutein (inactivated beta-galactosidase), pH 6.5.
Sirolimus chrome particles (immunoassay solid phase) were prepared by conjugating sirolimus-C26- or -C32-CMO conjugate to DA10-Dexal-Chromium Dioxide particles using N-hydroxysuccinimide (NHS) ester and 1-ethyl-3-(3-dimethylaminopropyl)carbodiimide (EDAC) chemistry. See, for example, U.S. Pat. No. 6,231,982, the relevant disclosure of which is incorporated herein by reference. The sirolimus chrome particles are then made into sirolimus chrome particle tablets. Each sirolimus tablet contains approximately 2 mg sirolimus chrome particle slurry, 30.4 mg trehalose dihydrate and 3.6 mg CARBOWAX® 100 μm.
The principle and operation of the ACMIA assay for sirolimus were as follows: pretreatment reagent without FKE or with FKE containing organic solvent as the selective solubility agent was added to a reaction vessel on the DIMENSION® RxL analyzer. Next, 18 μL of whole blood containing sirolimus or its metabolites was added. The whole blood was sampled from a standard cup by first mixing the blood with the ultrasonic sample probe. The mixing of whole blood sample with the pretreatment solution ensured the hemolysis of the whole blood and the displacement of the protein bound sirolimus molecules from their binding sites when the tacrolimus carbamate molecules were present. Anti-sirolimus antibody-β-galactosidase conjugate (50 μL) was added next and was allowed to react with sirolimus in the sample. The chrome particles with immobilized sirolimus-CMO-DA10-Dexal were added (50 μL) and were allowed to bind the un-bound conjugate. […] The sirolimus-bound conjugate was detected by transferring the supernatant from the reaction vessel to a photometric cuvette and measuring the enzymatic rate of the conjugate in the presence of chlorophenol red-β-D-galactopyranoside (CPRG). The rate was measured bichromatically at 577 and 700 nm. […]

[1] = PT with 15 μg/mL FKE & 15% DMSO

With 11-hydroxy sirolimus the sirolimus metabolite cross-reactivity [1] was 35%, the sirolimus metabolite cross-reactivity (PT with 15 μg/mL FKE, no DMSO) was 78% and the sirolimus metabolite cross-reactivity (PT with Neither FKE Nor DMSO) was 315%.
“11-hydroxy sirolimus [11-hydroxy sirolimus (isomer of the above)]” gave a sirolimus metabolite cross-reactivity [1] of 9%, a sirolimus metabolite cross-reactivity (PT with 15 μg/mL FKE, no DMSO) of 34% and a sirolimus metabolite cross-reactivity (PT with Neither FKE Nor DMSO) of 114%.
With “27,39-O-didesmethyl (or 32,41-O-didesmethyl) sirolimus [27,39 Didesmethyl sirolimus]” the “% Cross-Reactivity” value (Control: no organic solvent in pretreatment reagent, recovery as percent of parent sirolimus) was 180%, the “% Cross-Reactivity” value (DMSO 10% in pretreatment reagent, 2.3% in reaction mixture, 15 μg/mL FK506 ester) was 100% and the “% Cross-Reactivity” value (DMSO 15% in pretreatment reagent, 3.4% in reaction mixture, 15 μg/mL FK506 ester) was 88%. For the same compound, the “% Cross-Reactivity” value (Methoxypropanol 10% in pretreatment reagent, 2.3% in reaction mixture, 15 μg/mL FK506 ester) was 92%, the sirolimus metabolite cross-reactivity [1] was 88% and the sirolimus metabolite cross-reactivity (PT with 15 μg/mL FKE, no DMSO) was 165%. For the same compound, the sirolimus metabolite cross-reactivity (PT with Neither FKE Nor DMSO) was 569%.
In the case of 32-O-desmethyl sirolimus, the sirolimus metabolite cross-reactivity [1] is reported as −3%, the sirolimus metabolite cross-reactivity (PT with 15 μg/mL FKE, no DMSO) is reported as 8% and the sirolimus metabolite cross-reactivity (PT with Neither FKE Nor DMSO) is reported as 34%.
With 41-O-demethyl sirolimus the sirolimus metabolite cross-reactivity [1] was 40%, the sirolimus metabolite cross-reactivity (PT with 15 μg/mL FKE, no DMSO) was 39% and the sirolimus metabolite cross-reactivity (PT with Neither FKE Nor DMSO) was 48%.
For `CO[C@@H]1C[C@H](C[C@@H](C)[C@@H]2CC(=O)[C@H](C)/C=C(\C)[C@@H](O)[C@@H](OC)C(=O)[C@H](C)C[C@H](C)/C=C/C=C/C=C(\C)[C@@H](O)C[C@@H]3CC[C@@H](C)[C@@](O)(O3)C(=O)C(=O)N3CCCC[C@H]3C(=O)O2)CC[C@H]1O` [7-O-demethyl sirolimus], the sirolimus metabolite cross-reactivity [1] was −3%, the sirolimus metabolite cross-reactivity (PT with 15 μg/mL FKE, no DMSO) was 7% and the sirolimus metabolite cross-reactivity (PT with Neither FKE Nor DMSO) was 6%.
Work on (N-oxide)-hydroxy sirolimus yielded a sirolimus metabolite cross-reactivity [1] of 13%, a sirolimus metabolite cross-reactivity (PT with 15 μg/mL FKE, no DMSO) of 49% and a sirolimus metabolite cross-reactivity (PT with Neither FKE Nor DMSO) of 152%.
